Experimental data: patent publication US12612403B2, “Nitrogen-containing heterocyclic derivative inhibitor, and preparation method therefor and use thereof” (SHANGHAI HANSOH BIOMEDICAL CO., LTD., priority 2024, dated 2026)

tested on: PCSK9 secreted by HepG2 cells; experiment: Effect on the concentration of PCSK9 secreted by HepG2 cells (ELISA); type: cell-based; details: Homo sapiens, 48 hours, PCSK9 in culture medium by ELISA
Protocol: 1. Experimental objective: To detect the inhibitory effect of the compounds on PCSK9.
2. Experimental method: • 1) HepG2 cell strain was cultured in the complete culture medium at 37° C., 5% CO2 to 70-90% confluence. • 2) The cells were digested and resuspended in the experimental culture medium, inoculated at 25,000 cells/well/200 μL in a 96-well cell culture plate, and cultured at 37° C. and 5% CO2 for 20-24 hours. • 3) The culture medium was removed from the cell culture plate, and the cell culture plate was washed once by adding 200 ul of the experimental culture medium to each well. • 4) Preparation of positive control compound and compound to be tested: the positive control compound and the compound to be tested were diluted on the compound plate. • 5) The diluted compound was added to the cell culture plate at 250 μL per well and incubated at 37° C. and 5% CO2 for 48 hours. • 6) The cell culture medium was collected at 200 μL per well and cryopreserved at −80° C. for later use. • 7) A sample of the cell culture medium was taken from the −80° C. cryopreservation condition, dissolved, vortexed, and centrifuged for later use. • 8) Preparation of standard curve: corresponding volumes of Dilution buffer were successively added to respective standard tubes, and in the order of the concentrations of 10, 5, 2.5, 1.25, 0.625, 0.313, 0.16, 0 ng/mL, the standard was diluted in series by taking the corresponding volume from the original tube or the last concentration tube. • 9) Preparation of washing liquid: 10x Wash buffer was diluted into 1x with Milli-Q for later use. • 10) According to the standard curve wells and sample wells set according to a plate map, 100 μL/well of the corresponding standards and culture medium samples were added to the wells, with 2 replicate wells. A self-adhesive seal was applied, the plate was placed on a plate shaker at room temperature, gently shaken, uniformly mixed, and incubated for 1 hour. • 11) The plate was placed on the plate washer, the washing liquid was set to 350 μL per well, and the plate was washed 4 times repeatedly. • 12) 100 μL/well of an HRP-conjugated detection antibody was added, a self-adhesive seal was applied, and the plate was placed on the plate shaker, well mixed uniformly, and incubated for 1 hour. • 13) The plate was placed on the plate washer, the washing liquid was set to 350 μL per well, and the plate was washed 4 times repeatedly. • 14) 100 μL/well of Substrate reagent was added, and the plate was placed in the dark, applied with a self-adhesive seal, placed on the plate shaker, well mixed uniformly, and incubated for 10-20 minutes. • 15) 100 μL of Stop solution (1N H2SO4) was added to each well and mixed uniformly. • 16) The optical density (OD) value in each well was measured in sequence at a wavelength of 450 nm by the microplate reader. Detection was carried out within 30 min after the reaction was stopped.
3. Experimental data processing method: After the OD values were read by the microplate reader, the OD value of the 0-concentration standard in the standard group was subtracted from the OD values of the standards, control group, and samples to obtain the actual OD values for these wells. A standard curve was plotted with Graphpad and the concentration of the sample was calculated. If the dilution was performed during the sample detection, the calculated sample concentration was necessarily multiplied by the corresponding dilution ratio in the final calculation, which was the actual concentration of the sample. Inhibition rate=(actual concentration in control−actual concentration in sample)/actual concentration in control*100. According to the inhibition rates corresponding to the different concentrations, IC50 was derived by Graphpad.

Structure (SMILES)	IC50
O=C1c2cccc(C(F)(F)F)c2CN1c1ccc(N[C@H]2CC[C@H](Nc3nc4cc(F)ccn4n3)C2)nc1 [Example 26]	22.8 µM
O=C1c2ncc(F)cc2CN1c1ccc(N[C@H]2CC[C@H](Nc3nc4cc(C(F)(F)F)ccn4n3)C2)nc1 [Example 27, 3-Fluoro-6-(6-(((1S,3S)-3-((7-(trifluoromethyl)-[1,2,4]triazolo[1,5-a]pyridin-2-yl)amino)cyclopentyl)amino)pyridin-3-yl)-5,6-dihydro-7H-pyrrolo[3,4-b]pyridin-7-one]	12 µM
CC(C)(C)c1ccc2c(n1)C(=O)N(c1ccc(N[C@H]3CC[C@H](Nc4nc5cc(F)ccn5n4)C3)nc1)C2 [Example 49, 2-(Tert-butyl)-6-(6-(((1S,3S)-3-((7-fluoro-[1,2,4]triazolo[1,5-a]pyridin-2-yl)amino)cyclopentyl)amino)pyridin-3-yl)-5,6-dihydro-7H-pyrrolo[3,4-b]pyridin-7-one]	2.7 µM
Cc1cc2c(c(C)n1)CN(c1ccc(N[C@H]3CC[C@H](Nc4nc5cc(F)ccn5n4)C3)nc1)C2=O [Example 51, 2-(6-(((1S,3S)-3-((7-fluoro-[1,2,4]triazolo[1,5-a]pyridin-2-yl)amino)cyclopentyl)amino)pyridin-3-yl)-4,6-dimethyl-2,3-dihydro-1H-pyrrolo[3,4-c]pyridin-1-one]	21.3 µM
O=C1N(c2ccc(N[C@H]3CC[C@H](Nc4nc5cc(F)ccn5n4)C3)nc2)CCC12CC2 [Example 54, 5-(6-(((1S,3S)-3-((7-fluoro-[1,2,4]triazolo[1,5-a]pyridin-2-yl)amino)cyclopentyl)amino)pyridin-3-yl)-5-azaspiro[2.4]heptan-4-one]	23.4 µM
Cc1nccc2c1CN(c1ccc(N[C@H]3CC[C@H](Nc4nc5cc(C(F)(F)F)ccn5n4)C3)nc1)C2=O [Example 57, 4-methyl-2-(6-(((1S,3S)-3-((7-(trifluoromethyl)-[1,2,4]triazolo[1,5-a]pyridin-2-yl)amino)cyclopentyl)amino)pyridin-3-yl)-2,3-dihydro-1H-pyrrolo[3,4-c]pyridin-1-one]	1.7 µM
O=C1N(c2ccc(N[C@H]3CC[C@H](Nc4nc5cc(C(F)(F)F)ccn5n4)C3)nc2)CCC12CC2 [Example 58, 5-(6-(((1S,3S)-3-((7-(trifluoromethyl)-[1,2,4]triazolo[1,5-a]pyridin-2-yl)amino)cyclopentyl)amino)pyridin-3-yl)-5-azaspiro[2.4]heptan-4-one]	11.1 µM
Cc1cccnc1C(=O)Nc1ccc(N[C@H]2CC[C@H](Nc3nc4cc(C(F)(F)F)ccn4n3)C2)nc1 [Example 60]	27.4 µM
O=C1c2cc(F)cnc2CN1c1ccc(N[C@H]2CC[C@H](Nc3nc4cc(C(F)(F)F)ccn4n3)C2)nc1 [Example 61, 3-fluoro-6-(6-(((1S,3S)-3-((7-(trifluoromethyl)-[1,2,4]triazolo[1,5-a]pyridin-2-yl)amino)cyclopentyl)amino)pyridin-3-yl)-6,7-dihydro-5H-pyrrolo[3,4-b]pyridin-5-one]	0.6 µM
CN(Cc1ccc(N[C@H]2CC[C@H](Nc3nc4cc(C(F)(F)F)ccn4n3)C2)nc1)C(=O)c1ccccn1 [Example 62, N-methyl-N-(6-(((1S,3S)-3-((7-(trifluoromethyl)-[1,2,4]triazolo[1,5-a]pyridin-2-yl)amino)cyclopentyl)amino)pyridin-3-yl)methylpicolinamide]	17.6 µM
CC(C)(O)c1cccn(-c2ccc(N[C@H]3CC[C@H](Nc4nc5cc(C(F)(F)F)ccn5n4)C3)nc2)c1=O [Example 63, 3-(2-hydroxypropan-2-yl)-6′-(((1S,3S)-3-((7-(trifluoromethyl)-[1,2,4]triazolo[1,5-a]pyridin-2-yl)amino)cyclopentyl)amino)-2H-[1,3′-bipyridine]-2-one]	26.5 µM
N#Cc1cc2c(cn1)CN(c1ccc(N[C@H]3CC[C@H](Nc4nc5cc(C(F)(F)F)ccn5n4)C3)nc1)C2=O [Example 66, 1-carbonyl-2-(6-(((1S,3S)-3-((7-(trifluoromethyl)-[1,2,4]triazolo[1,5-a]pyridin-2-yl)amino)cyclopentyl)amino)pyridin-3-yl)-2,3-dihydro-1H-pyrrolo[3,4-c]pyridine-6-carbonitrile]	0.8 µM
Cc1ccc2c(n1)CN(c1ccc(N[C@H]3CC[C@H](Nc4nc5cc(C(F)(F)F)ccn5n4)C3)nc1)C2=O [Example 67, 2-methyl-6-(6-(((1S,3S)-3-((7-(trifluoromethyl)-[1,2,4]triazolo[1,5-a]pyridin-2-yl)amino)cyclopentyl)amino)pyridin-3-yl)-6,7-dihydro-5H-pyrrolo[3,4-b]pyridin-5-one]	17.1 µM
O=c1[nH]cccc1-c1ccc(N[C@H]2CC[C@H](Nc3nc4cc(C(F)(F)F)ccn4n3)C2)nc1 [Example 73, 6′-(((1S,3S)-3-((7-(trifluoromethyl)-[1,2,4]triazolo[1,5-a]pyridin-2-yl)amino)cyclopentyl)amino)-[3,3′-bipyridine]-2(1H)-one]	14.3 µM

Next, values leading:

IC50	Structure (SMILES)
26.5 µM	CC(C)(O)c1ccn(-c2ccc(N[C@H]3CC[C@H](Nc4nc5cc(C(F)(F)F)ccn5n4)C3)nc2)c(=O)c1 [Example 81, 4-(2-hydroxypropan-2-yl)-6′-(((1S,3S)-3-((7-(trifluoromethyl)-[1,2,4]triazolo[1,5-a]pyridin-2-yl)amino)cyclopentyl)amino)-2H-[1,3′-bipyridine]-2-one]
2.6 µM	Cc1ccc2c(c1)CN(c1ccc(N[C@H]3CC[C@H](Nc4nc5cc(C(F)(F)F)ccn5n4)C3)nc1)C2=O [Example 85, 5-methyl-2-(6-(((1S,3S)-3-((7-(trifluoromethyl)-[1,2,4]triazolo[1,5-a]pyridin-2-yl)amino)cyclopentyl)amino)pyridin-3-yl)isoindolin-1-one]
0.9 µM	O=C1c2ccc(F)cc2CN1c1ccc(N[C@H]2CC[C@H](Nc3nc4cc(C(F)(F)F)ccn4n3)C2)nc1 [Example 86, 5-fluoro-2-(6-(((1S,3S)-3-((7-(trifluoromethyl)-[1,2,4]triazolo[1,5-a]pyridin-2-yl)amino)cyclopentyl)amino)pyridin-3-yl)isoindolin-1-one]
0.6 µM	Cn1c2ccccc2c(=O)n1-c1ccc(N[C@H]2CC[C@H](Nc3nc4cc(C(F)(F)F)ccn4n3)C2)nc1 [Example 87]
2.7 µM	Cc1cc2c(c(C#N)n1)CN(c1ccc(N[C@H]3CC[C@H](Nc4nc5cc(C(F)(F)F)ccn5n4)C3)nc1)C2=O [Example 90, 6-methyl-1-carbonyl-2-(6-(((1S,3S)-3-((7-(trifluoromethyl)-[1,2,4]triazolo[1,5-a]pyridin-2-yl)amino)cyclopentyl)amino)pyridin-3-yl)-2,3-dihydro-1H-pyrrolo[3,4-c]pyridine-4-carbonitrile]
0.7 µM	O=C1c2ncc(Cl)cc2CN1c1ccc(N[C@H]2CC[C@H](Nc3nc4cc(C(F)(F)F)ccn4n3)C2)nc1 [Example 95]
12.7 µM	N#Cc1cnc2c(c1)CN(c1ccc(N[C@H]3CC[C@H](Nc4nc5cc(C(F)(F)F)ccn5n4)C3)nc1)C2=O [Example 96]
5 µM	Cc1nccc2c1CN(c1ccc(N[C@H]3CC[C@H](Nc4nc5cc(OC(F)F)ccn5n4)C3)nc1)C2=O [Example 100]
1.4 µM	O=c1nc(O)ccn1-c1ccc(N[C@H]2CC[C@H](Nc3nc4cc(Cl)ccn4n3)C2)nc1 [Example 103]
6.9 µM	Cc1cc(N[C@H]2CC[C@H](Nc3nc4cc(C(F)(F)F)ccn4n3)C2)ncc1N1Cc2cccnc2C1=O [Example 113]
5.3 µM	O=C1c2cccnc2CN1c1cnc(N[C@H]2CC[C@H](Nc3nc4cc(C(F)(F)F)ccn4n3)C2)c(F)c1 [Example 162]
14 µM	O=c1ccccn1-c1ccc(N[C@H]2CC[C@H](Nc3nc4cc(C(F)(F)F)ccn4n3)C2)nc1 [Example 426]
22.3 µM	O=c1ccccn1-c1ccc(N[C@H]2CC[C@H](Nc3nc4cc(C5CC5)ccn4n3)C2)nc1 [Example 427]
